Legend:
[1] = test system: monoclonal antibody 5-21-3; test: Immunoprecipitation of 125I synthetic peptides by 5-21-3; type: binding, mouse
Description: (§1) Synthetic peptides were radiolabeled with¹²⁵I (Amersham) by the chloramine T method (W.M. Hunter, "Radioimmunoassay" in D.M. Weir, Ed., Handbook of Experimental Immunology, [Blackwell Scientific Publications, 1973]). Generally, 2-6 ul of 100 mCi/ml ¹²⁵I were added to 10-50 ug of peptide in PBS, pH 7.4. Approximately 10 ug of freshly prepared (1 mg/ml in PBS) chloramine T were added to the mixture maintained at 4°C. After 5 min., [¹²⁵I]peptide was separated from free ¹²⁵I by passage of the reaction mixture through a 3 ml (bed volume) column of Biogel P-6 or P-2, as required. Fractions (200 ul each) containing [¹²⁵I]peptide were pooled and diluted into PBS containing 20% fetal calf serum. Rough estimations of¹²⁵I cpm bound to peptide were made by acid precipitation. An aliquot of labeled peptide was diluted into 1 ml of ice cold 50% trichloroacetic acid (TCA) overlaying a 0.45 um filter (made of mixed cellulose esters) set on a scintered glass filter connected to a vacuum apparatus. Precipitated protein was fixed onto the filter by application of vacuum, and filters were washed with ice-cold 50% TCA. Background cpm adhering non-specifically to the filter were estimated by repeating the procedure using a non-precipitating buffer. Amounts of peptide, ¹²⁵I, chloramine T, and composition of column eluting buffer were subject to change depending on conditions required to maintain solubility of each peptide.
Synthetic peptides radiolabeled with¹²⁵I were diluted into PBS (pH 7.4) containing 0.1% Triton X-100 (or other detergents where indicated) and 1.0% BSA, to yield approximately 2.5-5 X 10⁵ acid-precipitable cpm per 0.1 ml. Purified monoclonal IgG 5-21-3 and 10-15-63 were employed in the assay. Monoclonal antibodies were diluted into PBS containing 0.1% Triton X-100 (or other detergents where indicated), 1.0% BSA, and 2% normal mouse serum as a carrier immunoglobulin. Immune rabbit serum (anti-P58-130) was diluted appropriately into the same buffer except that normal rabbit serum (2%) was substituted for normal mouse serum as the carrier immunoglobulin. A reaction mixture comprising 0.1 ml [¹²⁵I] peptide (5 X l0⁵ cpm/0.1 ml) and 0.1 ml diluted antibody was incubated 1 hr at […], followed by addition of 0.1 ml of a precipitating antibody, either goat anti-mouse IgG, or goat anti-rabbit IgG, corresponding to the primary antibody. The reaction mixture was incubated 1 hr at […] and then overnight at 4°C. The precipitate was collected by centrifugation (2,000 x g, 5 min., 20°C), washed once in PBS containing 0.1% Triton X-100 and 1.0% BSA, collected by centrifugation, and counted in an LKB 128 gamma counter. […]

[2] = test system: monoclonal antibody 5-21-3; test: Immuno-dot blot of synthetic peptides with 5-21-3; type: binding, mouse; settings: 25 ug/ml 5-21-3
Description: The western Blot procedure described in Example 1 was employed for development of immuno-dot blots using synthetic peptides, except that synthetic peptides were fixed to nitrocellulose by direct application using Drummond lambda pipettes, and air dried prior to blocking with 20% fetal calf serum in PBS (pH 7.4). Monoclonal IgG 5-21-3, and a second anti-HIV I gp41 monoclonal antibody (IgG) 10-15-63 (which recognizes an epitope distinct and separate from the epitope recognized by 5-21-3), were purified from mouse ascites using Protein A-Sepharose, and employed at the concentrations indicated.
Immuno-dot blot results are illustrated in Figure 5 where synthetic peptides were spotted onto nitrocellulose as follows:(A) 10 ug P58-130, (B) 10 ug P67-154,(C) 6 ug P121-154 and (D) 9 ug of P126-162. The strips were reacted with 25 ug/ml monoclonal antibody 5-21-3, 25 ug/ml monoclonal antibody 10-15-63, 25 ug/ml normal mouse IgG, 2% mouse (M) anti-rp41 serum, 2% normal mouse serum (NMS), 2% Rabbit (R) anti-P58-130 serum, or 2% normal rabbit serum (NRS).

[3] = test system: Rabbit (R) anti-P58-130 serum; test: Immunoprecipitation of 125I synthetic peptides by rabbit anti-P58-130 serum; type: binding
Description: as §1
Synthetic peptides radiolabeled with¹²⁵I were diluted into PBS (pH 7.4) containing 0.1% Triton X-100 (or other detergents where indicated) and 1.0% BSA, to yield approximately 2.5-5 X 10⁵ acid-precipitable cpm per 0.1 ml. Purified monoclonal IgG 5-21-3 and 10-15-63 were employed in the assay. Monoclonal antibodies were diluted into PBS containing 0.1% Triton X-100 (or other detergents where indicated), 1.0% BSA, and 2% normal mouse serum as a carrier immunoglobulin. […] The precipitate was collected by centrifugation (2,000 x g, 5 min., 20°C), washed once in PBS containing 0.1% Triton X-100 and 1.0% BSA, collected by centrifugation, and counted in an LKB 128 gamma counter. […]

[4] = test system: Binding of Antibody 5-21-3 to rp41; test: Binding inhibition assay: peptides blocking 5-21-3 binding to rp41; design: species or system mouse
Description: Additional evidence for the conformational nature of the 5-21-3 epitope was obtained using binding inhibition studies, in which synthetic peptides were ranked for their ability to inhibit binding of 5-21-3 to rp41. First, the Fab dimer of an anti-gp41 monoclonal antibody was prepared by conventional methods (Goding et al., supra). Then 100 ul of a 1 mg/ml solution of the Fab dimer in bicarbonate buffer (pH 9.6) was coated onto Immulon II microtiter plates for 1 hr at 37°C. After washing with PBS containing 0.05% Tween 20, the plates were overcoated with 200 ul of 1.0% ovalbumin in bicarbonate buffer (pH 9.6) for 1 hr at 30°C. After washing, 100 ul of rp41 enriched E. coli lysate (as described in Example 3), diluted appropriately in PBS containing 0.05% Tween 20, were allowed to bind to the Fab dimer for 2 hr at 30°C. The plates were washed and stored at 4°C.
Intact monoclonal antibody 5-21-3 IgG (purified from tissue culture fluid supporting growth of the cloned cell line 5-21-3) was titrated against the bound rp41 on the plate, and an antibody concentration was selected which yielded an A₄₉₂ value of 2.0-3.0. Usually, 0.4 pmol (0.06 ug) of 5-21-3 IgG per microtiter well was employed in these assays. Stock solutions of 5-21-3 IgG were prepared in PBS containing 0.1% Triton X-100 and 0.1% SDS. Dilutions of synthetic peptides were made in the same buffer (SDS was included in these experiments to keep peptides soluble at high concentrations).
The binding inhibition assay was performed by combining 0.15 ml of 1.2 ug/ml 5-21-3 antibody stock solution with 0.15 ml of peptide at a selected peptide concentration, and incubating the reaction mixture 1 hr at room temp. Then 0.1 ml aliquots of each reaction mixture were added to each of two wells in the microtiter tray. After a 1 hr incubation at room temp., the plates were washed, and HRPO conjugated Goat anti-mouse IgG Fc was added for 1 hr at room temp. The plates were washed, and addition of OPD for color development identified the relative amounts of 5-21-3 bound to rp41 in the microtiter wells. The reaction was stopped by addition of 100 ul of 1N H₂S0₄, and the plates were read on a Dynatech II microtiter plate reader.

[5] = test system: monoclonal antibody 10-15-63; test: Immunoprecipitation of 125I synthetic peptides by 10-15-63; type: binding, mouse; settings: 10 ug/0.2 ml reaction mixture; 0.1% Triton X-100, 1.0% BSA, carrier serum; second antibody precipitation
Description: Synthetic peptides were radiolabeled with¹²⁵I (Amersham) by the chloramine T method (W.M. Hunter, "Radioimmunoassay" in D.M. Weir, Ed., Handbook of Experimental Immunology, [Blackwell Scientific Publications, 1973]). Generally, 2-6 ul of 100 mCi/ml ¹²⁵I were added to 10-50 ug of peptide in PBS, pH 7.4. Approximately 10 ug of freshly prepared (1 mg/ml in PBS) chloramine T were added to the mixture maintained at 4°C. After 5 min., [¹²⁵I]peptide was separated from free ¹²⁵I by passage of the reaction mixture through a 3 ml (bed volume) column of Biogel P-6 or P-2, as required. Fractions (200 ul each) containing [¹²⁵I]peptide were pooled and diluted into PBS containing 20% fetal calf serum. Rough estimations of¹²⁵I cpm bound to peptide were made by acid precipitation. […]
Synthetic peptides radiolabeled with¹²⁵I were diluted into PBS (pH 7.4) containing 0.1% Triton X-100 (or other detergents where indicated) and 1.0% BSA, to yield approximately 2.5-5 X 10⁵ acid-precipitable cpm per 0.1 ml. […] The precipitate was collected by centrifugation (2,000 x g, 5 min., 20°C), washed once in PBS containing 0.1% Triton X-100 and 1.0% BSA, collected by centrifugation, and counted in an LKB 128 gamma counter. […]

[6] = 10 ug/0.2 ml reaction mixture, 0.1% Triton X-100, 1.0% BSA, carrier serum, second antibody precipitation
[7] = serum 20 ul/0.2 ml reaction mixture, 0.1% Triton X-100, 1.0% BSA, carrier serum, second antibody precipitation

P121-154: synthetic peptide corresponding to gp41 amino acids 121-154 (DREINNYTSLIHSLIEESQNQQEKNEQELLELDK; Transmembrane protein gp41; UniProt P04578 632-665, looked up, fragment) [Peptide P121-154]
SPECIFIC PRECIPITATION (CPM) 5-21-3 [1, 6]: 40,717 CPM
x-fold increase of specific precipitation over non-specific precipitation, 5-21-3 [1, 6]: 31 x-fold
binding of the peptide by antibody 5-21-3 ([1]; in words, summary of Table 4): provided an epitope which was recognized by 5-21-3
5-21-3 concentration required to demonstrate reactivity against the peptide ([1]; summary of Table 5): at least 100 ug/ml
dot blot reactivity with antibody 5-21-3 ([2]; mild washing procedures): faint, diffuse reaction
dot blot reactivity with antibody 5-21-3 ([2]; peptide spotted on nitrocellulose): difficult to demonstrate
precipitation by rabbit anti-P58-130 ([3]; in words, summary of Table 4): strong precipitator
SPECIFIC PRECIPITATION (CPM) RαP58-130 [3, 7]: 310,419 CPM
x-fold increase of specific precipitation over non-specific precipitation, RαP58-130 [3, 7]: 24 x-fold
binding inhibition activity restored by flanking sequence, relative to P131-154 [4]: 20-65 fold
binding inhibition activity, fold less active than P67-154 [4]: 20 fold
Molar Ratio ([4]; at 50% inhibition of 5-21-3 binding, mean of two experiments): 1,494 pmoles peptide/pmoles 5-21-3
inhibition of 5-21-3 binding to rp41 ([4]; in words (Fig. 6, Table 6)): potent inhibitor
SPECIFIC PRECIPITATION (CPM) 10-15-63 [5]: 371 CPM
x-fold increase of specific precipitation over non-specific precipitation, 10-15-63 [5]: 1.3 x-fold

From patent EP0335134B1, “Mouse monoclonal antibody to human immunodeficiency virus gp41 protein” (ABBOTT LABORATORIES, priority 1988, dated 1989)
